What was measured:
[1] = biological target: Aurora kinase B (Homo sapiens) (UniProt Q96GD4); experiment: Inhibition of Aurora B (unknown origin) at 0.1 uM relative to control
[2] = biological target: Serine/threonine-protein kinase BRSK1 (Homo sapiens) (UniProt Q8TDC3); experiment: Inhibition of BrSK1 (unknown origin) at 0.1 uM relative to control
[3] = biological target: Cyclin-dependent kinase 5/CDK5 activator 1 (Homo sapiens) (UniProt Q00535+Q15078); experiment: Inhibition of CDK5/p35 (unknown origin) at 0.1 uM relative to control; format: protein-complex assay
Sequence of Cyclin-dependent kinase 5/CDK5 activator 1 (Homo sapiens) (Q00535 whole entry, canonical isoform): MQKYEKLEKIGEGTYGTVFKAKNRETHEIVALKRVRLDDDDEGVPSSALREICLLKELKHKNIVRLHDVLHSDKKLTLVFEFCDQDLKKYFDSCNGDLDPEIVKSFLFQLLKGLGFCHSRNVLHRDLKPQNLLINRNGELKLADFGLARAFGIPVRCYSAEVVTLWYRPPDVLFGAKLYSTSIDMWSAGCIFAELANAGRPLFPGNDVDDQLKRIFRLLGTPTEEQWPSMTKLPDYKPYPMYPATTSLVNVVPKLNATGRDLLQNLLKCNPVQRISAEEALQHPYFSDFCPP
Sequence of Cyclin-dependent kinase 5/CDK5 activator 1 (Homo sapiens) (Q15078 99-307 partner limits assumed): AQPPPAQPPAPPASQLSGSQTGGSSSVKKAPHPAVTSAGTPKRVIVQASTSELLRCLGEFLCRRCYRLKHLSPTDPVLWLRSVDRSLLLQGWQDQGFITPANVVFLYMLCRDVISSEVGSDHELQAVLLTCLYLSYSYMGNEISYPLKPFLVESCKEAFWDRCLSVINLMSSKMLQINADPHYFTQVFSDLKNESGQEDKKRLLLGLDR

[4] = biological target: Casein kinase I isoform alpha (Homo sapiens) (UniProt P48729); experiment: Inhibition of CK1alpha1 (unknown origin) at 0.1 uM relative to control
[5] = biological target: Casein kinase I isoform delta (Homo sapiens) (UniProt P48730); experiment: Inhibition of CK1delta (unknown origin) at 0.1 uM relative to control
[6] = biological target: Calcium/calmodulin-dependent protein kinase type II subunit delta (Homo sapiens) (UniProt Q13557); experiment: Inhibition of CaMKIIdelta (unknown origin) at 0.1 uM relative to control
[7] = biological target: Dual specificity tyrosine-phosphorylation-regulated kinase 4 (Homo sapiens) (UniProt Q9NR20); experiment: Inhibition of DYRK4 (unknown origin) at 0.1 uM relative to control
[8] = biological target: Ephrin type-B receptor 3 (Homo sapiens) (UniProt P54753); experiment: Inhibition of EphB3 (unknown origin) at 0.1 uM relative to control
[9] = biological target: G protein-coupled receptor kinase 3 (Homo sapiens) (UniProt P35626); experiment: Inhibition of GRK3 (unknown origin) at 0.1 uM relative to control
Sequence of G protein-coupled receptor kinase 3 (Homo sapiens) (P35626 whole entry): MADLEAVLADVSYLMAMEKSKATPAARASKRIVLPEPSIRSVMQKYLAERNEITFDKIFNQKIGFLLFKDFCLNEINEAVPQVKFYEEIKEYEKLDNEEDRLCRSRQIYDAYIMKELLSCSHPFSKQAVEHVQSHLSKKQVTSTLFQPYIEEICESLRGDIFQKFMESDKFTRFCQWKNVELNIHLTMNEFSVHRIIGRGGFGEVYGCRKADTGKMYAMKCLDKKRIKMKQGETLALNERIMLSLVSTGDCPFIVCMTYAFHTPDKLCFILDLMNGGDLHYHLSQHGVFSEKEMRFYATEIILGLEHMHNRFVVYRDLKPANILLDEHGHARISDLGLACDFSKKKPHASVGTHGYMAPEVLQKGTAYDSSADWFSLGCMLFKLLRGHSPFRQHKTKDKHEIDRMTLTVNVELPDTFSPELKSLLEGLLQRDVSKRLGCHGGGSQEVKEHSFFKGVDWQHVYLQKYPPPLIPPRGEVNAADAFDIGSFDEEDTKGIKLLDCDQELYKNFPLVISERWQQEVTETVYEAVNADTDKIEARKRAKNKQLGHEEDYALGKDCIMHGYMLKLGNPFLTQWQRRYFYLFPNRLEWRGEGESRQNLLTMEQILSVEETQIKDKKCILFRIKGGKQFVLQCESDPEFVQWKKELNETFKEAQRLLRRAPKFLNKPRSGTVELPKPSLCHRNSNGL

[10] = biological target: G protein-coupled receptor kinase 6 (Homo sapiens) (UniProt P43250); experiment: Inhibition of GRK6 (unknown origin) at 0.1 uM relative to control
[11] = biological target: Homeodomain-interacting protein kinase 2 (Homo sapiens) (UniProt Q9H2X6); experiment: Inhibition of HIPK2 (unknown origin) at 0.1 uM relative to control
[12] = biological target: Tyrosine-protein kinase ITK/TSK (Homo sapiens) (UniProt Q08881); experiment: Inhibition of Itk (unknown origin) at 0.1 uM relative to control
Sequence of Tyrosine-protein kinase ITK/TSK (Homo sapiens) (Q08881 whole entry): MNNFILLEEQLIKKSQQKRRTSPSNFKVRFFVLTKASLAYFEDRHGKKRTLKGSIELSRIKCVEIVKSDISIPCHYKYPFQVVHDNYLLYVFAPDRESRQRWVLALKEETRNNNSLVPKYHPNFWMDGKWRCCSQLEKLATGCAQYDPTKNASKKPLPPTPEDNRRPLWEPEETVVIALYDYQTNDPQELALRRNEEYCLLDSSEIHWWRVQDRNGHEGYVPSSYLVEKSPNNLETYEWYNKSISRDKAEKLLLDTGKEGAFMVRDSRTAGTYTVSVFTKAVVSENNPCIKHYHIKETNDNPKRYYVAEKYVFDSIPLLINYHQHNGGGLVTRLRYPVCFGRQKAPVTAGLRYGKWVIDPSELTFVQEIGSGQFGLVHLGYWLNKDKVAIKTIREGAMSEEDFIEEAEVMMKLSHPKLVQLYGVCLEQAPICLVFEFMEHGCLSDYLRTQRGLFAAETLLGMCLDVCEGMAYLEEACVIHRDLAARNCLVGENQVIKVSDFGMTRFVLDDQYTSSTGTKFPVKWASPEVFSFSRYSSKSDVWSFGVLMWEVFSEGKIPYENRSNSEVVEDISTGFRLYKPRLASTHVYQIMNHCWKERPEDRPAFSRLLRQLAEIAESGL

[13] = biological target: Tyrosine-protein kinase JAK1 (Homo sapiens) (UniProt P23458); experiment: Inhibition of JAK1 (unknown origin) at 0.1 uM relative to control
[14] = biological target: Leukocyte tyrosine kinase receptor (Homo sapiens) (UniProt P29376); experiment: Inhibition of LTK (unknown origin) at 0.1 uM relative to control
[15] = biological target: Dual specificity mitogen-activated protein kinase kinase 2 (Homo sapiens) (UniProt P36507); experiment: Inhibition of MEK2 (unknown origin) at 0.1 uM relative to control
[16] = biological target: MAP kinase-interacting serine/threonine-protein kinase 1 (Homo sapiens) (UniProt Q9BUB5); experiment: Inhibition of MKNK1 (unknown origin) at 0.1 uM relative to control
[17] = biological target: Serine/threonine-protein kinase MRCK alpha (Homo sapiens) (UniProt Q5VT25); experiment: Inhibition of MRCKalpha (unknown origin) at 0.1 uM relative to control
[18] = biological target: SRSF protein kinase 3 (Homo sapiens) (UniProt Q9UPE1); experiment: Inhibition of MSSK1 (unknown origin) at 0.1 uM relative to control
[19] = biological target: Phosphatidylinositol 4,5-bisphosphate 3-kinase catalytic subunit delta isoform (Homo sapiens) (UniProt O00329); experiment: Inhibition of PI3Kdelta (unknown origin) at 0.1 uM relative to control
[20] = biological target: Serine/threonine-protein kinase pim-2 (Homo sapiens) (UniProt Q9P1W9); experiment: Inhibition of PIM2 (unknown origin) at 0.1 uM relative to control
[21] = biological target: Protein kinase C delta type (Homo sapiens) (UniProt Q05655); experiment: Inhibition of PKCdelta (unknown origin) at 0.1 uM relative to control
Sequence of Protein kinase C delta type (Homo sapiens) (Q05655 whole entry, looked up): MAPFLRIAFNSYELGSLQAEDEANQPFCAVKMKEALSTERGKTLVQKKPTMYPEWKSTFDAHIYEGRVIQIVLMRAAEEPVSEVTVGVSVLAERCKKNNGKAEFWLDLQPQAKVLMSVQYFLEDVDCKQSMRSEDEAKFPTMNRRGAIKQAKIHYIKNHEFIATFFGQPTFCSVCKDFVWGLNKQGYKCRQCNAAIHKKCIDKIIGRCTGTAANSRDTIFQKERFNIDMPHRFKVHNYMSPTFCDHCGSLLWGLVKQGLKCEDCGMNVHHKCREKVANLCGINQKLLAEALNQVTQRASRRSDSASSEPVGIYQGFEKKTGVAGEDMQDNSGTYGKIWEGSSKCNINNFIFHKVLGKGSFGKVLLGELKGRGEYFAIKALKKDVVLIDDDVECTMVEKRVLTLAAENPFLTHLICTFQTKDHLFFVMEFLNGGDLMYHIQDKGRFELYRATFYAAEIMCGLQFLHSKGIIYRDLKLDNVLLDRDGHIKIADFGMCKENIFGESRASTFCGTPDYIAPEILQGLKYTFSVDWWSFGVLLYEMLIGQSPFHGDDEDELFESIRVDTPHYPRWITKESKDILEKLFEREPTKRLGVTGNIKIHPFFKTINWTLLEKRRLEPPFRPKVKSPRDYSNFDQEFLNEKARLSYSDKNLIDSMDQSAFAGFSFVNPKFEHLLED

[22] = biological target: Protein kinase C epsilon type (Homo sapiens) (UniProt Q02156); experiment: Inhibition of PKCepsilon (unknown origin) at 0.1 uM relative to control
[23] = biological target: Phosphorylase b kinase gamma catalytic chain, liver/testis isoform (Homo sapiens) (UniProt P15735); experiment: Inhibition of PhKgamma2 (unknown origin) at 0.1 uM relative to control
[24] = biological target: Ribosomal protein S6 kinase alpha-1 (Homo sapiens) (UniProt Q15418); experiment: Inhibition of Rsk1 (unknown origin) at 0.1 uM relative to control
[25] = biological target: SRSF protein kinase 1 (Homo sapiens) (UniProt Q96SB4); experiment: Inhibition of SRPK1 (unknown origin) at 0.1 uM relative to control
[26] = biological target: Serine/threonine-protein kinase mTOR (Homo sapiens) (UniProt P42345); experiment: Inhibition of mTOR (unknown origin) at 0.1 uM relative to control
[27] = biological target: Serine/threonine-protein kinase Chk2 (Homo sapiens) (UniProt O96017); experiment: Inhibition of CHK2 (unknown origin) at 0.1 uM relative to control
[28] = biological target: Ephrin type-B receptor 1 (Homo sapiens) (UniProt P54762); experiment: Inhibition of EphB1 (unknown origin) at 0.1 uM relative to control
[29] = biological target: Tyrosine-protein kinase Fes/Fps (Homo sapiens) (UniProt P07332); experiment: Inhibition of Fes (unknown origin) at 0.1 uM relative to control
Sequence of Tyrosine-protein kinase Fes/Fps (Homo sapiens) (P07332 whole entry): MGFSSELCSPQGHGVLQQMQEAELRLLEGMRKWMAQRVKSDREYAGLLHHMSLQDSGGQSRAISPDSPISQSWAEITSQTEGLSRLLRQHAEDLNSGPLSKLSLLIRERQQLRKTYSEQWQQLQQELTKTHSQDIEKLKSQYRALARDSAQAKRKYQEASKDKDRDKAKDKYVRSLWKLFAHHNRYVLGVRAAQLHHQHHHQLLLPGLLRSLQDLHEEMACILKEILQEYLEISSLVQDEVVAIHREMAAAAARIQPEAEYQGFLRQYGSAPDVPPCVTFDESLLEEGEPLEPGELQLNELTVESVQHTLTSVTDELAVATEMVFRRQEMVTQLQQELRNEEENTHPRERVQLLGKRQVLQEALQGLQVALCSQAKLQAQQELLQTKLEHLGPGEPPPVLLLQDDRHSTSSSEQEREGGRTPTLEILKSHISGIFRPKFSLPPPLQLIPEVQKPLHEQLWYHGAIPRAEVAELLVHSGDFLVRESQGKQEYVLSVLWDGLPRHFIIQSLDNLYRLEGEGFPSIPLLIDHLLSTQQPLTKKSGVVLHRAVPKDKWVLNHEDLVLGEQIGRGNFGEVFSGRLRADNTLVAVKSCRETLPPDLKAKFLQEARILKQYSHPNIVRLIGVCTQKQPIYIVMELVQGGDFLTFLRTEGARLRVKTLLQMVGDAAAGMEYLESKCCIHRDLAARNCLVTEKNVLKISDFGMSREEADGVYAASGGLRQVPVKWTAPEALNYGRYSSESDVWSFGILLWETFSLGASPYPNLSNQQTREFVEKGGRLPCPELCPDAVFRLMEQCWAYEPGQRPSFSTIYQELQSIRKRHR

[30] = biological target: Tyrosine-protein kinase Lyn (Homo sapiens) (UniProt P07948); experiment: Inhibition of LynB (unknown origin) at 0.1 uM relative to control
[31] = biological target: Angiopoietin-1 receptor (Homo sapiens) (UniProt Q02763); experiment: Inhibition of Tie2 (unknown origin) at 0.1 uM relative to control
Sequence of Angiopoietin-1 receptor (Homo sapiens) (Q02763 whole entry): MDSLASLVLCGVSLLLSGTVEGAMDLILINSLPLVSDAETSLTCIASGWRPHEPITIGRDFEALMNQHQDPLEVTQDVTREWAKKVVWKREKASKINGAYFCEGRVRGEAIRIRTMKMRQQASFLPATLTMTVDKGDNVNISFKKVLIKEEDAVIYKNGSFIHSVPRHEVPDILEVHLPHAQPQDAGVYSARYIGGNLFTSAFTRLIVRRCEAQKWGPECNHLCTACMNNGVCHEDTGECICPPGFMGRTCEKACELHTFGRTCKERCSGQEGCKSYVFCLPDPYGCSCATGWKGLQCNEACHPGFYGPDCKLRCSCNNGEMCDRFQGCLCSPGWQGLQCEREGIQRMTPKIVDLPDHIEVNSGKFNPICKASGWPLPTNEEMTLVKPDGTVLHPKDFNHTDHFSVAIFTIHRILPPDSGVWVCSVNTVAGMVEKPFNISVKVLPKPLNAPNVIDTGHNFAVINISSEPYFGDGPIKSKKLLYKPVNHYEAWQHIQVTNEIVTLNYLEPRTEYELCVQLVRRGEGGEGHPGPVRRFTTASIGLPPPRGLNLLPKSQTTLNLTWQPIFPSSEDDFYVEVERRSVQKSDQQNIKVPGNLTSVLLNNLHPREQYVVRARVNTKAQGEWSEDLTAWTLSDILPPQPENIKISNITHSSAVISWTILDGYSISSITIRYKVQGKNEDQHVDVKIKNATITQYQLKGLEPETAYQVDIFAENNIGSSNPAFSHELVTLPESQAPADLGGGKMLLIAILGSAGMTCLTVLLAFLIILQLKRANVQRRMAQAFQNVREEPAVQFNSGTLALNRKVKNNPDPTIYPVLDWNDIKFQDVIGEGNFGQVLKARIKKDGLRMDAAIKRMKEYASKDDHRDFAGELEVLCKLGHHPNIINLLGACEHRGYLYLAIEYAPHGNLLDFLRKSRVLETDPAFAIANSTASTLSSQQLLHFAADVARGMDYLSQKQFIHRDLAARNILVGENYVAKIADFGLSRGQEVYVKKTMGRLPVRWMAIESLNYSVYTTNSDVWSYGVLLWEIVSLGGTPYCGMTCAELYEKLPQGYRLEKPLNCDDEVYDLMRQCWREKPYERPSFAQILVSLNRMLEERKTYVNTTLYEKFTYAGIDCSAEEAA

[32] = biological target: Cyclin-dependent kinase 7/ cyclin H (Homo sapiens) (UniProt P51946+P50613); experiment: Inhibition of CDK7/CyclinH (unknown origin) at 0.1 uM relative to control; format: protein-complex assay
[33] = biological target: CDK8/Cyclin C (Homo sapiens) (UniProt P49336+P24863); experiment: Inhibition of CDK8/CyclinC (unknown origin) at 0.1 uM relative to control; format: protein-complex assay
[34] = biological target: Leucine-rich repeat serine/threonine-protein kinase 2 (Homo sapiens) (UniProt Q5S007); experiment: Inhibition of LRRK2 (unknown origin) at 0.1 uM relative to control
[35] = biological target: Serine/threonine-protein kinase NLK (Homo sapiens) (UniProt Q9UBE8); experiment: Inhibition of NLK (unknown origin) at 0.1 uM relative to control
[36] = biological target: cAMP-dependent protein kinase (PKA) (Homo sapiens) (UniProt P22694+P17612+P22612); experiment: Inhibition of PKA (unknown origin) at 0.1 uM relative to control; format: protein assay
[37] = biological target: TGF-beta receptor type-1 (Homo sapiens) (UniProt P36897); experiment: Inhibition of TGFBR1 (unknown origin) at 0.1 uM relative to control
[38] = biological target: Serine/threonine-protein kinase WNK2 (Homo sapiens) (UniProt Q9Y3S1); experiment: Inhibition of WNK2 (unknown origin) at 0.1 uM relative to control

Sequence of Aurora kinase B (Homo sapiens) (Q96GD4 whole entry): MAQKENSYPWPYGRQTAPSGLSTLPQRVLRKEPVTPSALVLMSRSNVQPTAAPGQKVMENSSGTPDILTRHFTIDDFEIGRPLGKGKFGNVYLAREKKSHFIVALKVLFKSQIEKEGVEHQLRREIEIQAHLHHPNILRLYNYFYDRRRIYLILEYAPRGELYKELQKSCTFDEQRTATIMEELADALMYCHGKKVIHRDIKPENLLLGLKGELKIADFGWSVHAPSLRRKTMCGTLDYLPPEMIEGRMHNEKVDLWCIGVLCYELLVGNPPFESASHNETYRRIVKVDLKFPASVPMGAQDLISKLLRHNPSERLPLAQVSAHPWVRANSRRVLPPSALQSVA

COCCNc1nc2ccc(C#CC3(O)CCCCC3)cc2n1-c1ccnc(N)n1
inhibition [1]: 4.7%
inhibition [2]: 4.6%
inhibition [3]: -1.6%
inhibition [4]: 8.8%
inhibition [5]: 6.6%
inhibition [6]: 6.9%
inhibition [7]: -3%
inhibition [8]: 5.5%
inhibition [9]: 1.1%
inhibition [10]: 11.7%
inhibition [11]: 2.8%
inhibition [12]: 4%
inhibition [13]: 0.1%
inhibition [14]: -0.9%
inhibition [15]: -0.6%
inhibition [16]: -2.7%
inhibition [17]: -2.4%
inhibition [18]: 9.8%
inhibition [19]: -4.8%
inhibition [20]: 8.4%
inhibition [21]: 0.5%
inhibition [22]: 8.3%
inhibition [23]: 17.3%
inhibition [24]: 6.7%
inhibition [25]: 5.4%
inhibition [26]: -2.4%

CN1CCc2cc(-c3cnc4[nH]cc(C(=O)c5ccccc5Cl)c4c3)ccc2C1
inhibition [27]: 4.3%
inhibition [28]: 93%
inhibition [29]: 38.3%
inhibition [30]: 99.8%
inhibition [31]: 24.8%
inhibition [32]: 31%
inhibition [33]: 57.3%
inhibition [34]: 48.2%
inhibition [35]: 5%
inhibition [36]: 13%
inhibition [37]: 99.3%
inhibition [38]: 0%

— ChEMBL document CHEMBL5678812, “Inhibitors of p21-activated kinases (PAKs)” (J Med Chem, 2015)
